Reference: patent US20180200233A1, “COMPOSITIONS FOR PREVENTING CANCERS ASSOCIATED WITH HUMAN PAPILLOMA VIRUSES” (Loma Linda University, priority 2015, published 2018)

How the values were obtained:
p53 level in C33A cells = experiment: p53 ELISA in C33A cells; format: cell-based, human; conditions: 200 μM myricetin, 100 μM spinacine; with mitomycin C, 24 h
Protocol: FIGS. 6A-B is an immunoblot and FIG. 6B is a graph showing that treatment with myricetin and spinacine (5) increased cellular levels of caspase 8 and p53. (FIG. 6A) SiHa cells (1×10^6 per well) were seeded into a 6-well plate and allowed to incubate overnight. The indicated concentrations of myricetin and spinacine were added, then cells were incubated for 24 h. Cells were then washed in 1×PBS, then harvested and the resulting level of caspase 8 was measured by immunoblot. (FIG. 6B) SiHa and C33A cells (1×10^6 per well) were seeded into a 6-well plate and allowed to incubate overnight. 200 μM of myricetin and 100 μM spinacine were added together with 4 μg/ml mitomycin C and incubated for 24 h. The resulting level of p53 was measured by ELISA, and the level of p53 found in untreated cells was set at 100%. Experiments were performed in triplicate, and error bars indicate the standard deviation.
If this ability is due to inhibition of E6 functions, then an increase in the levels of caspase 8 and p53 should be observable in SiHa cells following treatment with myricetin and spinacine. To test this prediction, SiHa cells were treated with 50, 100, and 200 μM of myricetin or spinacine for 24 hr, and then measured the level of caspase 8 by immunoblot. […] To ask how p53 levels were affected, an ELISA assay was employed. […]

[1] = system: UPCI-SCC90-UP-Clone 35 (#90) cells; experiment: MTT cell viability, HPV+ HNSCC cell line #90 with TRAIL; format: cell-based; conditions: HPV+ #90 cells, 50 ng/ml TRAIL
Protocol: FIGS. 7A-E are graphs showing myricetin and spinacine (5) re-sensitized HPV^+, but not HPV^−, head and neck cancer cell lines to treatment with TRAIL. (FIG. 7A) Both HPV^− and HPV^+ HN cancer cell lines display resistance to TRAIL treatment. HPV^− (#84) (Myricetin—FIG. 7B; Spinacine—FIG. 7C) and HPV^+ (#90) (FIG. 7D; Spinacine—FIG. 7E) head and neck cancer cell lines (2×10^4 cells per well) were seeded into 96-well plates and allowed to incubate overnight, then cells were pre-treated with myricetin (0-200 μM) or spinacine (0-100 μM) for 4 h. […] of TRAIL, along with cycloheximide (5 μg/ml) was added and cells were allowed to incubate overnight. Cell viability was measured by the MTT assay, and the viability of cells untreated with small molecules was set at 100%. Experiments were performed in triplicate, and error bars indicate the standard deviation.
As shown above, myricetin and spinacine sensitize SiHa cells to TRAIL and chemotherapy drugs. […] Other types of HPV^+ cancer cells were examined, and in particular, head and neck squamous cell carcinoma (HNSCC) cells can also be sensitized in this manner. […] For the combination experiments, 50 ng/ml TRAIL was applied in combination with either myricetin (0-200 μM) or spinacine (0-100 μM). […] In contrast […], TRAIL-induced cell death was enhanced 30% in UPCI-SCC90-UP-Clone 35, #90. Furthermore, 40 μM spinacine was able to enhance TRAIL-induced cell death in the HPV^+ #90 cell lines up to 50%.
The extracellular domain of human TRAIL was cloned into a pTriEx expression plasmid containing N-terminal Hisx6 tag. His-TRAIL was expressed in the E. coli BL-21 pLys strain and purified as previously described. Doxorubicin and cisplatin were purchased from Sigma. His-TRAIL, doxorubicin, and cisplatin were diluted in PBS to the desired concentration before using. […] All experiments were repeated at least three times (three biological replicates, carried out on different days), with each experimental group measured in triplicate within each of these individual experiments. […]

Compound | change in p53 levels in C33A cells (in words) (p53 level in C33A cells) | enhancement of TRAIL-induced cell death ([1]; myricetin 0-200 μM) [%] | enhancement of TRAIL-induced cell death ([1]; 40 μM spinacine)
O=c1c(O)c(-c2cc(O)c(O)c(O)c2)oc2cc(O)cc(O)c12 [Myricetin, reference compound] | no significant change | 30 | 
O=C(O)C1Cc2[nH]cnc2CN1 (stereo not shown) [Compound 5, 4,5,6,7-Tetrahydro-1H-imidazo(4,5-c)pyridine-6-carboxylic acid] | no significant change |  | up to 50%
